Test in all cases: NCI tumour cell line growth inhibition, 48 h
Experiment [1] deals with SK-MEL-5.
For experiment [2], the system named is MDA-N.
The test system of experiment [3] is HCT-15.
Experiment [4] relates to NCI-H522.
The test system of experiment [5] is NCI-H23.
Experiment [6] relates to SN12C.
Experiment [7] deals with M14.
Experiment [8] concerns IGROV-1.
Experiment [9] deals with LOX IMVI.
The subject of experiment [10] is UACC-62.
The subject of experiment [11] is EKVX.
Experiment [12] concerns MDA-MB-231.
The test system of experiment [13] is OVCAR-5.
Experiment [14] deals with MDA-MB-435.
Experiment [15] deals with KM12.
In experiment [16] the test system is Malme-3M.
The subject of experiment [17] is UACC-257.
Experiment [18] relates to 786-0.
Experiment [19] deals with BT-549.
Experiment [20] relates to SW-620.

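Values below derive from 48-hour exposures of cells grown in 96-well plates, with endpoints linearly interpolated between the two concentrations bracketing the appropriate inhibition level. GI50: concentration for 50% inhibition of growth.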 The source made the active and inactive calls. No stated cut-off is given here; in the data, active = GI50 up to about 1.1 µM and inactive = higher.

`CN(C)c1ccc(/C=c2\c3cc([N+](=O)[O-])ccc3n3c2cc(-c2ccccc2)[n+]3C)cc1`: the GI50 in experiment [1] is 0.318 µM (active); in [2] it was 0.437 µM (active); in experiment [3], 15.5 µM; in experiment [4], 0.497 µM (active); in [5] it was 2.75 µM (inactive); in [6], 0.454 µM (active). Further, the GI50 in experiment [7] is 1 µM (active); in experiment [8], 0.964 µM (active); in experiment [9], 1.57 µM (inactive); in experiment [10] it was 0.678 µM (active); in [11], 0.998 µM (active); in experiment [12], 1.73 µM (inactive). Moreover, the GI50 in [13] was 3.63 µM (inactive); in experiment [14] it was 0.531 µM (active); in experiment [15] it was 1.04 µM (active); in [16] it was 0.55 µM (active); in [17], 0.918 µM (active); in experiment [18] it was 3.31 µM (inactive). Also, the GI50 in experiment [19] is 1.23 µM (inactive); in experiment [20], 0.836 µM (active).
Regarding `C/C(=N\NC(=S)NCCNC(=S)N/N=C(\C)c1ccccn1)c1ccccn1`, the GI50 in [1] is 1.74 µM (inactive); in experiment [2], 4.51 µM (inactive); in [3], 1.84 µM; in experiment [4], 6.04 µM (inactive); in experiment [5] it was 4.41 µM (inactive); in experiment [6] it was 1.94 µM (inactive). Besides, the GI50 in experiment [7] was 1.5 µM (inactive); in experiment [8], 2.07 µM (inactive); in experiment [9], 1.89 µM (inactive); in experiment [10], 2.62 µM (inactive); in experiment [11], 4.83 µM (inactive); in experiment [12] it was > 20.9 µM (inactive). The GI50 in experiment [13] is 3.98 µM (inactive); in experiment [14] it was 3.91 µM (inactive); in experiment [15], 3.87 µM (inactive); in experiment [16], 2.54 µM (inactive); in experiment [17] it was 2.61 µM (inactive); in [18] it was 1.26 µM (inactive). The GI50 in [19] is 2.36 µM (inactive); in experiment [20] it was 5.04 µM (inactive).
As for `CCOC1OC(=O)c2cc3ccc4c(c3c(-c3ccc5c(c3)OCO5)c21)OCO4` (stereo not given), the GI50 in experiment [1] was 2.72 µM (inactive); in experiment [2], 1.9 µM (inactive); in [3], 4.85 µM; in [4], 0.687 µM (active); in [5], 3.72 µM (inactive); in [6], 10.9 µM (inactive). Further, the GI50 was 3.4 µM (inactive) in experiment [7]; 4.6 µM (inactive) in [8]; 3.79 µM (inactive) in experiment [9]; 6.01 µM (inactive) in experiment [10]; 3.54 µM (inactive) in experiment [11]; 17.4 µM (inactive) in experiment [12]. Moreover, the GI50 in experiment [13] was 14.5 µM (inactive); in experiment [14] it was 3.04 µM (inactive); in experiment [15], 4.58 µM (inactive); in [16], > 100 µM (inactive); in experiment [17], 9.79 µM (inactive); in [18], 9.06 µM (inactive). Besides, the GI50 in experiment [19] was 4.28 µM (inactive); in [20] it was 6.04 µM (inactive).
On to `CSC1=NC(=O)CCN1C1OCC(OC(C)=O)C(OC(C)=O)C1OC(C)=O` (stereo not given), for which the GI50 was 10.9 µM (inactive) in experiment [1]; > 10 µM (inactive) in experiment [2]; 18.5 µM in experiment [3]; 18.2 µM (inactive) in [4]; 20.8 µM (inactive) in experiment [5]; 20.7 µM (inactive) in experiment [6]. Moreover, the GI50 in experiment [7] was > 10 µM (inactive); in experiment [8], 15.1 µM (inactive); in experiment [9], > 10 µM (inactive); in experiment [10], 40.6 µM (inactive); in experiment [11], 20.1 µM (inactive); in [12], 12.4 µM (inactive). Also, the GI50 in experiment [13] is 19.6 µM (inactive); in [14], 17.9 µM (inactive); in [15], 21.5 µM (inactive); in experiment [16], 14.3 µM (inactive); in experiment [17], 18.4 µM (inactive); in experiment [18] it was 16.3 µM (inactive). The GI50 in [19] is 15.1 µM (inactive); in experiment [20], 18.3 µM (inactive).
Take `N#CC(c1ccccc1)N1CCCN(C(C#N)c2ccccc2)C1c1ccccc1O` (stereo not given): the GI50 was > 100 µM (inactive) in experiment [1]; > 100 µM (inactive) in experiment [2]; over 100 µM in experiment [3]; > 100 µM (inactive) in experiment [4]; > 100 µM (inactive) in experiment [5]; > 100 µM (inactive) in experiment [6]. For the same compound, the GI50 in experiment [7], in [8], in experiment [9], in experiment [10], in experiment [11] and in [12] was > 100 µM (inactive) each time. The GI50 in [13], in experiment [14], in experiment [15], in experiment [16], in experiment [17] and in experiment [18] was > 100 µM (inactive) in each case. For the same compound, the GI50 in [19] and in [20] was > 100 µM (inactive) in each case.
`Cn1c(N=P(c2ccccc2)(c2ccccc2)c2ccccc2)c([N+](=O)[O-])c(=O)n(C)c1=O`: the GI50 in experiment [1] is 47.4 µM (inactive); in [2] it was 34.1 µM (inactive); in experiment [3], 51.9 µM; in experiment [4], 41.9 µM (inactive); in [5], 99.1 µM (inactive); in experiment [6], 56.2 µM (inactive). For the same compound, the GI50 in experiment [7] was 31.6 µM (inactive); in experiment [8] it was 48 µM (inactive); in [9] it was 35.9 µM (inactive); in experiment [10], 59.2 µM (inactive); in [11] it was 56.2 µM (inactive); in experiment [12], 32.2 µM (inactive). Further, the GI50 is > 100 µM (inactive) in [13]; 35.2 µM (inactive) in experiment [14]; 25.6 µM (inactive) in experiment [15]; > 100 µM (inactive) in experiment [16]; 73.1 µM (inactive) in [17]; 39 µM (inactive) in experiment [18]. For the same compound, the GI50 in [19] was 38.5 µM (inactive); in experiment [20], 41.4 µM (inactive).
`CC(C)[C@H]1NC(=O)[C@H]2N=C(O[C@@H]2C)[C@@H]2CCCN2C(=O)[C@H](Cc2ccccc2)NC(=O)[C@@H]2CSC(=N2)[C@@H](Cc2ccccc2)NC(=O)[C@@H]2CSC1=N2`: the GI50 in [1] was 95.9 µM (inactive); in [2] it was > 100 µM (inactive); in experiment [3], over 100 µM; in experiment [4] it was 58.2 µM (inactive); in experiment [5] it was > 100 µM (inactive); in [6], > 100 µM (inactive). Besides, the GI50 was > 100 µM (inactive) in experiment [7]; 41.1 µM (inactive) in experiment [8]; 75.3 µM (inactive) in [9]; 50 µM (inactive) in [10]; > 100 µM (inactive) in [11]; > 100 µM (inactive) in experiment [12]. Moreover, the GI50 in experiment [13] is > 100 µM (inactive); in experiment [14], 52.8 µM (inactive); in experiment [15] it was 88.1 µM (inactive); in experiment [16], > 100 µM (inactive); in experiment [17], > 100 µM (inactive); in experiment [18], > 100 µM (inactive). Further, the GI50 is > 100 µM (inactive) in experiment [19] and 86.5 µM (inactive) in experiment [20].
On to `CS(=O)(=O)CS(=O)(=O)OCCCl`, for which the GI50 in [1] was 211 µM (inactive); in [2], 107 µM (inactive); in experiment [3] it was 209 µM; in [4], 206 µM (inactive); in experiment [5] it was 143 µM (inactive); in experiment [6], 188 µM (inactive). In addition, the GI50 in experiment [7] is 191 µM (inactive); in experiment [8], 252 µM (inactive); in experiment [9], 37.8 µM (inactive); in [10], 29.5 µM (inactive); in experiment [11], 366 µM (inactive); in [12] it was 296 µM (inactive). Also, the GI50 was 621 µM (inactive) in [13]; 991 µM (inactive) in experiment [14]; 339 µM (inactive) in [15]; 356 µM (inactive) in [16]; 169 µM (inactive) in [17]; 61.2 µM (inactive) in [18]. For the same compound, the GI50 was 99.5 µM (inactive) in [19] and 115 µM (inactive) in [20].
Consider `OCc1cccc(Nc2nc(O)c3[nH]cnc3n2)c1`, for which the GI50 was > 100 µM (inactive) in experiment [1]; > 100 µM (inactive) in experiment [2]; over 100 µM in experiment [3]; > 100 µM (inactive) in experiment [4]; > 100 µM (inactive) in [5]; > 100 µM (inactive) in experiment [6]. The GI50 in experiment [7], in experiment [8], in experiment [9], in [10], in experiment [11] and in experiment [12] was > 100 µM (inactive) throughout. In addition, the GI50 in [13], in experiment [14], in [15], in [16], in experiment [17] and in experiment [18] was > 100 µM (inactive) in each case. For the same compound, the GI50 in experiment [19] and in experiment [20] was > 100 µM (inactive) each time.
Regarding `N=C(N)SCCSC(=N)N`, the GI50 is > 100 µM (inactive) in [1]; > 100 µM (inactive) in experiment [2]; over 100 µM in experiment [3]; > 100 µM (inactive) in experiment [4]; > 100 µM (inactive) in experiment [5]; > 100 µM (inactive) in experiment [6]. The GI50 in experiment [7] is > 100 µM (inactive); in [8] it was > 100 µM (inactive); in experiment [9], > 100 µM (inactive); in experiment [10], > 100 µM (inactive); in [11], 47 µM (inactive); in experiment [12], > 100 µM (inactive). Besides, the GI50 in experiment [13], in experiment [14], in experiment [15], in experiment [16], in [17] and in experiment [18] was > 100 µM (inactive) in each case. In addition, the GI50 in experiment [19] and in [20] was > 100 µM (inactive) each time.

Values taken from ChEMBL document CHEMBL1201862, “PubChem BioAssay data set” (2004).
